Data as given in patent US9944986B2, “Therapeutic targets for Alzheimer's disease” (The University of Birmingham, priority 2012, dated 2018).

Tests used:
[1] = system: brain; test: T2 weighted MRI of brain after mTOR inhibition/activation; assay type: in vivo; conditions: SD rats; rapamycin 0.2 mg/kg i.p., ketamine 30 mg/kg i.p.; n=3
Excerpt: (§1) There were three animals (n=3) in each group. Animals were sacrificed and the brain removed and frozen for imaging studies.

[2] = system: brain; test: MSI imaging of brain sections (phosphatidylcholines, choline, creatine); assay type: in vivo; conditions: SD rats, rapamycin 0.2 mg/kg i.p., ketamine 30 mg/kg i.p.
Method: as §1
All MSI imaging experiments were performed on a Bruker ultrafleXtreme TOF/TOF mass spectrometer. For matrix evaluation, 4 serial sections of thickness 10 μm from sham control brain S2 were acquired using a Leica CM 1850 Cryostat and subsequently thaw mounted onto an ITO coated glass slide. Each section in turn was coated with 15 mL of 20 mg mL^−1 of CHCA in CH3OH, 0.1% TFA) using an artist airbrush while the remaining 2 sections were covered. Data were collected over the mass range m/z 60-1400. MSI experiments of a single section from each group (Rapa, Ket and Control) were conducted. […]. Images were acquired with a pixel size of 100 μm×100 μm.

CNC1(c2ccccc2Cl)CCCCC1=O (stereo not shown) [ketamine]
T2 weighted MRI images versus control animals [1]: clear differences in the T2 weighted MRI images | phosphatidylcholine species in the brain (ion images) relative to control [2]: clear differences induced by mTOR inhibition or activation | choline levels in the brain ([2]; vs control): measureable changes | creatine levels in the brain ([2]; vs control): measureable changes
